Experimental data as given in PubChem BioAssay (NCI).
Several values for one entry are separate records, joined by “and”; a condition that tells them apart may be missing. Identical values can stand only once.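 Step 1: Grow cells in 96-well plates. Step 2: Expose to compound for 48 hours at 5 concentrations. Step 3: Interpolate endpoints linearly; if unreached, use highest concentration. GI50 is the concentration that inhibits growth by half. At the TGI there is no net growth.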

How the values were obtained:
Experiment in all cases: NCI-60 cell line screen, 48 h
RXF 393 renal = system: RXF 393 renal
TK-10 renal = system: TK-10 renal
CAKI-1 renal = system: CAKI-1 renal
DLD-1 colon = system: DLD-1 colon
M19-MEL melanoma = system: M19-MEL melanoma
NCI-H460 lung = system: NCI-H460 lung
HOP-92 NSCLC = system: HOP-92 NSCLC
MOLT-4 leukemia = system: MOLT-4 leukemia
CCRF-CEM leukemia = system: CCRF-CEM leukemia
HL-60(TB) leukemia = system: HL-60(TB) leukemia

| Structure (SMILES) | TGI (RXF 393 renal) | TGI (TK-10 renal) | TGI (CAKI-1 renal) [µM] | TGI (DLD-1 colon) [µM] | TGI (M19-MEL melanoma) [µM] | TGI (NCI-H460 lung) | TGI (HOP-92 NSCLC) | TGI (MOLT-4 leukemia) | TGI (CCRF-CEM leukemia) | TGI (HL-60(TB) leukemia) | GI50 (RXF 393 renal) [µM] | GI50 (TK-10 renal) [µM] | GI50 (CCRF-CEM leukemia) [µM] | GI50 (NCI-H460 lung) [µM] | GI50 (HOP-92 NSCLC) [µM] | GI50 (HL-60(TB) leukemia) [µM] | GI50 (MOLT-4 leukemia) [µM] | GI50 (CAKI-1 renal) [µM] | GI50 (DLD-1 colon) [µM] | GI50 (M19-MEL melanoma) [µM] |
| --- | --- | --- | --- | --- | --- | --- | --- | --- | --- | --- | --- | --- | --- | --- | --- | --- | --- | --- | --- | --- |
| C=C1C(=O)OC2CC3(C)C=CC(=O)C(=C)C3CC12 (stereo unspecified) | 4.46 µM | 4.79 µM | 2.77 | 1.51 | 3.51 | 7.12 µM | 3.49 µM | 3.52 µM |  |  |  |  |  |  |  |  |  |  |  |  |
| O=C(CC1Sc2ccccc2NC1=O)Nc1cc(Cl)ccc1Cl (stereo unspecified) | > 100 µM | > 100 µM | > 100 | > 100 | > 100 | > 100 µM | > 100 µM | > 100 µM | > 100 µM | > 100 µM |  |  |  |  |  |  |  |  |  |  |
| COC(=O)CCC(=O)N1Cc2cc(C)ccc2N(C(=O)CCC(=O)OC)Cc2cc(C)ccc21 | > 100 µM | > 100 µM | > 100 | > 100 | > 100 | > 100 µM | > 100 µM | > 100 µM | > 100 µM | > 100 µM |  |  |  |  |  |  |  |  |  |  |
| C=C(C)[C@@H]1CC=C(CO)CC1 | > 10 µM and 569 µM | > 10 µM and 998 µM | > 10 | 922 | 793 | > 10 µM and 1260 µM | > 10 µM and 830 µM | > 10 µM and 1050 µM | > 10 µM and 440 µM | > 10 µM and 267 µM | > 10 | > 10 | > 10 | > 10 | > 10 | > 10 | > 10 |  |  |  |
| CC(=O)[O][Pb]([O]C(C)=O)([c]1ccccc1)[c]1ccccc1 | 5.69 µM | > 100 µM | > 100 | > 100 | 9.89 | > 100 µM | > 100 µM | > 100 µM | > 100 µM | > 100 µM | 1.41 | > 53.1 | 16.2 | 7.51 | 3.62 | > 100 | 35 | 13.7 | 6.38 | 2.77 |
| CCC[CH2][Sn]([CH2]CCC)([O]C(C)=O)[O]C(C)=O | 0.654 µM | 2.74 µM | 2.23 | 2.58 | 5.12 | 7.55 µM | 4.13 µM | 4.59 µM | 0.832 µM | 1.45 µM | 0.195 | 1.38 | 0.197 | 2.6 | 1.92 | 0.524 | 0.505 | 0.638 | 1.19 |  |
| CC(=O)/C(=C\c1ccco1)C(=O)Nc1ccccc1 | > 100 µM | > 100 µM | > 100 | > 100 | > 100 | > 100 µM | > 100 µM | > 100 µM | > 100 µM | > 100 µM |  |  |  |  |  |  |  |  |  |  |
| NCC1(N2CCOCC2)C2CCCC21CO (stereo unspecified) | > 100 µM |  | > 100 | > 100 | > 100 | > 100 µM | > 100 µM | > 100 µM | > 100 µM | > 100 µM |  |  |  |  |  |  |  |  |  |  |
| COC12C=CC(CC1)c1c(O)ccc(O)c12 (stereo unspecified) | > 100 µM | > 67.1 µM | > 100 | > 100 | > 55.4 | > 100 µM |  | > 79 µM | 65.1 µM | 41.6 µM |  |  |  |  |  |  |  |  |  |  |
| CCOC(=O)C=C1CCN(C(=O)c2ccccc2)CC1 | > 100 µM | > 100 µM |  | > 100 | > 100 | > 100 µM | > 100 µM | > 100 µM | > 100 µM | > 100 µM |  |  |  |  |  |  |  |  |  |  |
| CN1CCc2c1nc(-c1ccccc1)c1c2N(C)CC1 | > 100 µM | > 100 µM | > 100 | > 100 | > 100 | > 100 µM | 91 µM | > 100 µM | > 100 µM | > 100 µM |  |  |  |  |  |  |  |  |  |  |
| O=C1C/C(=C/c2ccc(/C=C3/CC(=O)N(c4cccc(Br)c4)C3=O)cc2)C(=O)N1c1cccc(Br)c1 | 93.4 µM | > 100 µM | > 100 | > 100 | > 100 | > 100 µM | > 100 µM | 98.6 µM | > 100 µM | > 100 µM |  |  |  |  |  |  |  |  |  |  |
| COC(=O)c1[nH]c(=S)[nH]c(=O)c1-c1ccc(Cl)cc1 | > 50 µM | > 50 µM | > 50 | > 50 | > 50 | > 50 µM | > 50 µM | > 50 µM | > 50 µM | > 50 µM |  |  |  |  |  |  |  |  |  |  |
